# The NIST ThermoML archive (doi:10.1021/je7007654)
# Numbers after ± are expanded uncertainties.
# Legend:
# [1] = 101 kPa, Liquid; for viscosity: Capillary tube (Ostwald / Ubbelohde) method; for speed of sound: Sing-around technique in a fixed-path interferometer
# [2] = xn = mol fraction of the nth substance listed; details: 101 kPa, Liquid, x1 = 1; for viscosity: Capillary tube (Ostwald / Ubbelohde) method; for speed of sound: Sing-around technique in a fixed-path interferometer
# [3] = 298.15 K, Vibrating tube method
# [4] = 303.15 K, Vibrating tube method
# [5] = 308.15 K, Vibrating tube method
SMILES,viscosity ([1]; 298.15 K) [mPa·s],speed of sound ([1]; 298.15 K) [m/s],viscosity ([1]; 303.15 K) [mPa·s],speed of sound ([1]; 303.15 K) [m/s],viscosity ([1]; 308.15 K) [mPa·s],speed of sound ([1]; 308.15 K) [m/s],mass density ([1]; 298.15 K) [kg/m3],mass density ([1]; 303.15 K) [kg/m3],mass density ([1]; 308.15 K) [kg/m3],viscosity ([2]; 298.15 K) [mPa·s],speed of sound ([2]; 298.15 K) [m/s],viscosity ([2]; 303.15 K) [mPa·s],speed of sound ([2]; 303.15 K) [m/s],viscosity ([2]; 308.15 K) [mPa·s],speed of sound ([2]; 308.15 K) [m/s],also measured
"CC(C)CCCC(C)CCCC(C)CCCCC(C)CCCC(C)CCCC(C)C (stereo not given) [2,6,10,15,19,23-hexamethyltetracosane]",28.26 ± 0.18,1381.9 ± 1.2,22.09 ± 0.14,1364.1 ± 1.2,17.77 ± 0.12,1346.5 ± 1.2,,,,,,,,,,"mass density [1, 3]: 805.122 ± 0.23 kg/m3; mass density [1, 4]: 801.912 ± 0.24 kg/m3; mass density [1, 5]: 798.709 ± 0.24 kg/m3"
CCCCCCCCCCCCCCCC [hexadecane],3.041 ± 0.023,1338.6 ± 1.2,2.706 ± 0.02,1320 ± 1.2,2.409 ± 0.018,1301.7 ± 1.2,770.456 ± 0.84,766.981 ± 0.85,763.52 ± 0.86,,,,,,,
CCCCO [butan-1-ol],2.573 ± 0.016,1240.5 ± 0.8,2.275 ± 0.014,1226.5 ± 0.8,1.981 ± 0.013,1209.8 ± 0.8,805.907 ± 0.67,803.155 ± 0.68,799.249 ± 0.69,,,,,,,
CCCCO [butan-1-ol] + CCCCCCCCCCCCCCCC,,,,,,,,,,2.573 ± 0.016,1240.5 ± 0.8,2.275 ± 0.014,1226.5 ± 0.8,1.981 ± 0.013,1209.8 ± 0.8,mass density ([2]; 298.15 K): 805.907 ± 0.67 kg/m3; mass density ([2]; 303.15 K): 803.155 ± 0.68 kg/m3; mass density ([2]; 308.15 K): 799.249 ± 0.69 kg/m3
CCCCO [butan-1-ol] + CC(C)CCCC(C)CCCC(C)CCCCC(C)CCCC(C)CCCC(C)C,,,,,,,,,,2.573 ± 0.016,1240.5 ± 0.8,2.275 ± 0.014,1226.5 ± 0.8,1.981 ± 0.013,1209.8 ± 0.8,"mass density [2, 3]: 805.907 ± 0.14 kg/m3; mass density [2, 4]: 803.155 ± 0.14 kg/m3; mass density [2, 5]: 799.249 ± 0.14 kg/m3"
